Our source for the inhibition, IC50 and INH values is ChEMBL document CHEMBL2311273, “Discovery of potent, selective multidrug and toxin extrusion transporter 1 (MATE1, SLC47A1) inhibitors through prescription drug profiling and computational modeling” (J Med Chem, 2013).

Structures are written as SMILES.

Holding throughout (format): cell-based
The target of data set [1] is T1, MATE1 (multidrug and toxin extrusion protein 1) (Homo sapiens, UniProt Q96FL8).
T1 sequence (Q96FL8 whole entry): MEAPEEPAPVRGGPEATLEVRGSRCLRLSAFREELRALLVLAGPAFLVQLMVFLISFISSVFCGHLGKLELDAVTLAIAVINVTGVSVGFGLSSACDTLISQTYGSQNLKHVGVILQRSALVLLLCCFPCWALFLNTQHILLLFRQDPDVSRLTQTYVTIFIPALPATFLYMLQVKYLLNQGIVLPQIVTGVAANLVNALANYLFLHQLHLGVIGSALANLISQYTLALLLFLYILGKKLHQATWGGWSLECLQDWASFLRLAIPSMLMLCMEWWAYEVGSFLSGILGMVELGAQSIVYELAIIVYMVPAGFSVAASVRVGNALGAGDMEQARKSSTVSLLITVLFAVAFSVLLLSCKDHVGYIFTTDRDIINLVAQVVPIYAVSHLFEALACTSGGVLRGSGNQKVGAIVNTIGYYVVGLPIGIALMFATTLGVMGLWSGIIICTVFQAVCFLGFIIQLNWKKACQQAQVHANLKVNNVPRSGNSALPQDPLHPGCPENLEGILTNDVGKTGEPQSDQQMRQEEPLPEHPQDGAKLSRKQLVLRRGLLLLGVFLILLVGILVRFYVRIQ
The experiment in a line: (§1) Inhibition of human MATE1-mediated ASP+ uptake expressed in HEK293 cells at 20 uM after 1.5 mins by fluorescence assay. Particulars: HEK293 cells expressing human MATE1, probe ASP+.

In data set [2] the target is T2, Multidrug and toxin extrusion protein 1 (Homo sapiens, UniProt Q96FL8).
T2 sequence (Q96FL8 whole entry): T1 sequence (Q96FL8 whole entry)
The experiment in a line: Inhibition of human MATE1-mediated ASP+ uptake expressed in HEK293 cells after 1.5 mins by fluorescence assay.

Data set [3] deals with T3, Multidrug and toxin extrusion protein 2 (Homo sapiens, UniProt Q86VL8).
T3 sequence (Q86VL8 whole entry): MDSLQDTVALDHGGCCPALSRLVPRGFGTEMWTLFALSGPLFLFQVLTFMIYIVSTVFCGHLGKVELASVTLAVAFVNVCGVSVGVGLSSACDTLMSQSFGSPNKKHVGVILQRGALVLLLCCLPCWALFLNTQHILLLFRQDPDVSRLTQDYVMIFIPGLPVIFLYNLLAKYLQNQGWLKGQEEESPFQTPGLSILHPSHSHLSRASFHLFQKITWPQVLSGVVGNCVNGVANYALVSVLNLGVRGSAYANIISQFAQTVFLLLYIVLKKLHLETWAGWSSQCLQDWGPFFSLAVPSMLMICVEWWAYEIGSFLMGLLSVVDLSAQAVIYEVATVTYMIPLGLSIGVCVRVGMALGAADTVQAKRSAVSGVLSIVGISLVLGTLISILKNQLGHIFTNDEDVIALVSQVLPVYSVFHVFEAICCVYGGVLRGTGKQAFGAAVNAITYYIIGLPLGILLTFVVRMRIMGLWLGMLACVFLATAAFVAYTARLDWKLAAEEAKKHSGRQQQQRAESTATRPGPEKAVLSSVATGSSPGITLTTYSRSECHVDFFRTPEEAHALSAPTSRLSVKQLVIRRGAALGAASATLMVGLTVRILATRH
The experiment in a line: Inhibition of human MATE2K-mediated ASP+ uptake expressed in HEK293 cells after 1.5 mins by fluorescence assay.

In data set [4] the target is T4, Solute carrier family 22 member 2 (Homo sapiens, UniProt O15244).
T4 sequence (O15244 whole entry): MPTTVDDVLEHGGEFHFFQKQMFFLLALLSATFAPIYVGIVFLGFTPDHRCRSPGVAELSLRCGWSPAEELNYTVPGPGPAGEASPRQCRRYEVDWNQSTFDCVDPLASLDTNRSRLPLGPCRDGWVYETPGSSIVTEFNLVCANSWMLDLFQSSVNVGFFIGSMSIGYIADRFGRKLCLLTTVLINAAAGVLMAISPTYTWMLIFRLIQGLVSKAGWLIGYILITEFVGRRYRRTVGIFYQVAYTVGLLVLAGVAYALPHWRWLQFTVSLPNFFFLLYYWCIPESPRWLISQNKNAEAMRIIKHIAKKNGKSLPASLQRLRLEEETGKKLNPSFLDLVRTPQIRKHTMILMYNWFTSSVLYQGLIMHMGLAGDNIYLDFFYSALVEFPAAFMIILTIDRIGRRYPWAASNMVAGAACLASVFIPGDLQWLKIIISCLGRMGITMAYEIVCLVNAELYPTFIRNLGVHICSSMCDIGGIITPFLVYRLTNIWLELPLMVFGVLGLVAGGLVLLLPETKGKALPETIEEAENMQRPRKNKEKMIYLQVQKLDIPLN
The experiment in a line: Inhibition of human OCT2-mediated ASP+ uptake expressed in HEK293 cells after 3 mins by fluorescence assay.

Data set [5] deals with T2, Multidrug and toxin extrusion protein 1. The description is as §1. Particulars: hek293, […], 20 µM.

Consider `CNC(=C[N+](=O)[O-])NCCSCc1ccc(CN(C)C)o1` [RANITIDINE], for which the inhibition (in general, how much of the control response was suppressed) at […], 20 µM in data set [1] was found to be 29%.
On to `NC1=NCC2c3ccccc3Cc3ccccc3N12` (stereo not given) [EPINASTINE], for which the IC50 – broadly, the concentration that inhibits the measured activity by half – in data set [2] was determined as 1.1 µM; in data set [3] it was 29.8 µM; in data set [4], 4.3 µM. In data set [5], this compound yielded an INH of 97%.
As for `CCCCc1nc(Cl)c(CO)n1Cc1ccc(-c2ccccc2-c2nn[nH]n2)cc1` [LOSARTAN], the inhibition at […], 20 µM in data set [1] worked out at 12%.
Compound `C=C[C@H]1C[N@@]2CC[C@H]1C[C@@H]2[C@@H](O)c1ccnc2ccc(OC)cc12` [QUINIDINE] had an inhibition at […], 20 µM in data set [1] of 28%.
Turning to `CC(=O)O[C@H]1C[C@@H]2CC[C@@H]3[C@H](CC[C@@]4(C)[C@H]3C[C@H]([N+]3(C)CCCCC3)[C@@H]4OC(C)=O)[C@@]2(C)C[C@@H]1N1CCCCC1.[Br-]` [VECURONIUM BROMIDE], the IC50 in data set [2] is 1.9 µM; in data set [3], 25.2 µM; in data set [4], 3.5 µM. For the same compound, the INH in data set [5] was found to be 85%.
For `CN1C2CCCC1CC(NC(=O)c1nn(C)c3ccccc13)C2` (stereo not given) [GRANISETRON], the IC50 was found to be 311 µM in data set [3] and 4.3 µM in data set [4]. Also, in data set [5], the INH stood at 67%.
Compound `COc1cc2nc(N3CCN(C(=O)c4ccco4)CC3)nc(N)c2cc1OC` [PRAZOSIN] gave an IC50 in data set [3] of 38.4 µM.
With `CC(N)C12CC3CC(CC(C3)C1)C2` (stereo not given) [RIMANTADINE], the IC50 came out at 7.3 µM in data set [2], 288 µM in data set [3] and 4.4 µM in data set [4]. For the same compound, the INH in data set [5] came to 74%.
For the compound `[H]/N=C(/N)c1ccc(NCc2nc3cc(C(=O)N(CCC(=O)O)c4ccccn4)ccc3n2C)cc1` [DABIGATRAN], the IC50 in data set [2] amounted to 8.1 µM; in data set [3], 25.3 µM; in data set [4] it was 4.7 µM.
In data set [2], `c1ccc2[nH]c(-c3cscn3)nc2c1` [THIABENDAZOLE] showed an IC50 above 500 µM. The compound further returned an inhibition at […], 20 µM in data set [1] of 55%.
For `COc1cc2c3cc1Oc1cc(ccc1O)C[C@@H]1c4c(cc(OC)c(O)c4Oc4ccc(cc4)C[C@@H]3N(C)CC2)CC[N+]1(C)C` [TUBOCURARINE], the IC50 in data set [2] was found to be 9.4 µM; in data set [3] it was 55.5 µM; in data set [4] it was 78.8 µM. The INH in data set [5] is 95%.
The matching figures for `C#C[C@]1(O)CC[C@H]2[C@@H]3CCc4cc(O)ccc4[C@H]3CC[C@@]21C` [ETHINYL ESTRADIOL]: 21.1 µM, 20.2 µM, 2.2 µM and 60%.
`Clc1cccc(Cl)c1N=C1NCCN1` [CLONIDINE] came in with an IC50 in data set [2] of 33.3 µM. Moreover, in data set [1], the inhibition at […], 20 µM amounted to 1%.
The matching figures for `Cc1cc(C2CCCCC2)n(O)c(=O)c1` [CICLOPIROX]: above 500 µM and 52%.
In the case of `O=C1CC2(CCCC2)CC(=O)N1CCCCN1CCN(c2ncccn2)CC1` [BUSPIRONE], the results for the IC50 in data set [3] and in data set [4] were 46 µM and 12 µM, respectively.
As for `CN1C[C@H](C(=O)N[C@]2(C)O[C@@]3(O)[C@@H]4CCCN4C(=O)[C@H](Cc4ccccc4)N3C2=O)C[C@@H]2c3cccc4[nH]cc(c34)C[C@H]21` [DIHYDROERGOTAMINE], the IC50 in data set [2] was 2.8 µM; in data set [3], 12.6 µM; in data set [4], 49.9 µM. This compound also displayed an INH in data set [5] of 72%.
Consider `CC(=O)S[C@@H]1CC2=CC(=O)CC[C@]2(C)[C@H]2CC[C@@]3(C)[C@@H](CC[C@@]34CCC(=O)O4)[C@H]12` [SPIRONOLACTONE], for which 18.6 µM corresponded to half-maximal inhibition in data set [2] (IC50). The same compound returned an inhibition at […], 20 µM in data set [1] of 27%.
In the same order, the values of `CCOC(=O)[C@H](CCc1ccccc1)N[C@@H](C)C(=O)N1CCC[C@H]1C(=O)O` are above 500 µM and 23%.
Regarding `Nc1ncn([C@@H]2O[C@H](CO)[C@@H](O)[C@H]2O)c(=O)n1` [AZACITIDINE], the inhibition at […], 20 µM in data set [1] was 50%.
For `COc1ccc(CCN2CCC(Nc3nc4ccccc4n3Cc3ccc(F)cc3)CC2)cc1` [ASTEMIZOLE], it took 26.4 µM to reach half-maximal inhibition in data set [2] (IC50). In addition, the inhibition at […], 20 µM in data set [1] was 34%.
The matching figures for `C[C@@H]1C[C@H]2[C@@H]3CCC4=CC(=O)C=C[C@]4(C)[C@@]3(F)[C@@H](O)C[C@]2(C)[C@@]1(O)C(=O)CO` [DEXAMETHASONE]: above 500 µM and 30%.
In turn, `CCOc1ccc(NC(C)=O)cc1` [PHENACETIN] displayed an inhibition at […], 20 µM in data set [1] of 53%.
The compound `C[C@]12CCC(=O)C=C1CC[C@@H]1[C@@H]2C(=O)C[C@@]2(C)[C@H]1CC[C@]2(O)C(=O)CO` [CORTISONE] displayed an inhibition at […], 20 µM in data set [1] of 10%.
As for `O=C(O)c1cccnc1` [NIACIN], the inhibition at […], 20 µM in data set [1] stood at 54%.
Same read-out and setting: under `CCCCC1=NC2(CCCC2)C(=O)N1Cc1ccc(-c2ccccc2-c2nnn[nH]2)cc1` [IRBESARTAN] stands 15%.
For `COc1cc(C(=O)NS(=O)(=O)c2ccccc2C)ccc1Cc1cn(C)c2ccc(NC(=O)OC3CCCC3)cc12` [ZAFIRLUKAST], the values for the IC50 in data set [3] and in data set [4] were 7.6 µM and 9.7 µM, respectively. The compound also yielded an INH in data set [5] of 52%.
`CN(C)C(=O)COC(=O)Cc1ccc(OC(=O)c2ccc(NC(=N)N)cc2)cc1` [CAMOSTAT]: the IC50 in data set [3] was found to be 12.7 µM; in data set [4], 16.5 µM. In data set [5], this compound came in with an INH of 77%.
As to `O=c1[nH]c2ccccc2n1C1CCN(CCCC(c2ccc(F)cc2)c2ccc(F)cc2)CC1` [PIMOZIDE], the results for the IC50 in data set [3] and in data set [4] were above 500 µM and 34.2 µM, respectively.
For `CC[C@H]1OC(=O)[C@H](C)[C@@H](O[C@H]2C[C@@](C)(OC)[C@@H](O)[C@H](C)O2)[C@H](C)[C@@H](O[C@@H]2O[C@H](C)C[C@H](N(C)C)[C@H]2O)[C@](C)(O)C[C@@H](C)C(=O)[C@H](C)[C@@H](O)[C@]1(C)O` [ERYTHROMYCIN], in data set [2], the half-inhibitory concentration (IC50) was above 500 µM.
In turn, `CCCc1nc2c(C)cc(-c3nc4ccccc4n3C)cc2n1Cc1ccc(-c2ccccc2C(=O)O)cc1` had an IC50 in data set [2] of 17.9 µM. In addition, in data set [1], the inhibition at […], 20 µM amounted to 38%.
For `O=c1[nH]c2ccccc2n1CCCN1CCC(n2c(=O)[nH]c3cc(Cl)ccc32)CC1` [DOMPERIDONE], the IC50 in data set [3] was 14.8 µM; in data set [4], 7.9 µM. In data set [5], this compound returned an INH of 66%.
The compound `COc1ccc2c(c1)c(CC(=O)O)c(C)n2C(=O)c1ccc(Cl)cc1` [INDOMETHACIN] came in with an inhibition at […], 20 µM in data set [1] of 6%.
For the compound `CCOC(=O)c1ccc(OC(=O)CCCCCNC(=N)N)cc1` [GABEXATE], the concentration for half-maximal inhibition (IC50) was 0.5 µM in data set [2], 10.8 µM in data set [3] and 0.9 µM in data set [4]. The compound also gave an inhibition at […], 20 µM in data set [1] of 96%.
With `CC[C@@]1(O)C(=O)OCc2c1cc1n(c2=O)Cc2cc3c(CN(C)C)c(O)ccc3nc2-1` [TOPOTECAN], the IC50 in data set [2] came out at 1.3 µM; in data set [3], 8.6 µM; in data set [4], 61 µM. The compound further had an INH in data set [5] of 50%.
The compound `CNS(=O)(=O)Cc1ccc2[nH]cc(CCN(C)C)c2c1` had an IC50 in data set [2] of 6.7 µM. The same compound had an inhibition at […], 20 µM in data set [1] of 7%.
